This is an account of results in patent publication US7943795B2, “Vitamin D receptor modulators” (Eli Lilly and Company, priority 2004, dated 2011).

Data set [1] has as its target T1, VDR (Homo sapiens, UniProt P11473).
T1 construct: the receptor expression vector pGal4-VDR-LBD (10 ng); expressed in transfected cells; host or cells: Caco-2 cells
T1 sequence (P11473 127-423 limits assumed): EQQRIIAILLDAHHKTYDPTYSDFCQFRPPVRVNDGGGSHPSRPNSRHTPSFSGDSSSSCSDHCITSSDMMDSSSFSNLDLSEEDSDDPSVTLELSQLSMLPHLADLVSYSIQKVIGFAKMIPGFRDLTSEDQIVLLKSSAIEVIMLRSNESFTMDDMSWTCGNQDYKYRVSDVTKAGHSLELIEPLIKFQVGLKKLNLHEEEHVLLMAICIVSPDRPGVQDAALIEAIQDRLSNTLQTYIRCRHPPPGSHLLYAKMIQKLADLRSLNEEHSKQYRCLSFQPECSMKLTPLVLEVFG
The experiment in a line: VDR CTF (Caco-2 cells) co-transfection assay. The data set is classed as cell-based. The note with it: pGal4-VDR-LBD, luciferase reporter. On the procedure: 3. The VDR CTF (Caco-2 cells) test is described in the “Assay” section of the Description, infra.
The Caco-2 cell assay is an indicator for the undesirable condition of hypercalcemia. This co-transfection assay is a surrogate assay for in vivo calcemic activity of VDR ligands. It is desirable to have high EC50 values for a test compound in this assay. The higher the EC50 values for a compound the less calcemic it will be in vivo. Desired assay results are EC50 greater than or equal to 300 nM. Preferred assay results are greater than 1000 nM.
Caco-2 cells, grown in phenol red free, DMEM (Invitrogen, Carlsbad, Calif.) containing 10% charcoal-stripped FBS (Hyclone, Logan, Utah), are transfected with Fugene 6 reagent (Roche Diagnostics, Indianapolis, Ind.). Cells (5000/well) are plated 18 h before transfection in a 96 well plate. The cells are transfected with Gal4-responsive reporter pFRLuc (150 ng, Stratagene, La Jolla Calif.) and the receptor expression vector pGal4-VDR-LBD (10 ng), along with Fugene 6 reagent (0.2 μl/well). The DNA-Fugene complex is formed by incubating the mixture for 30 m at room temperature. The cells are transfected in triplicate for 5 h, and treated with various concentrations of VDR ligands (from 0.01 nM to […] concentration range) 18 h post-transfection. The luciferase activity is quantified using Steady-Glo reagent kit (Promega, Madison, Wis.) as per manufacturer's specifications.

Data set [2] can be described thus: Mouse hypercalcemia assay. The format is in vivo. How it is done: 5. The Mouse Hypercalcemia test is described in the “Assay” section of the Description, infra.
The Mouse Hypercalcemia Assay
The Mouse Hypercalcemia Assay is a six day hypercalcemia test for toxicity and selectivity. Acceptable test results are levels greater than 30 μg/kg/day. Preferred assay results are levels greater than 300 μg/kg/day.
Weanling, virus—antibody-free, five to six weeks old female DBF mice (Harlan, Indianapolis, Ind.) are used for all the studies. Animals are allowed to acclimate to local vivarium conditions for 2 days. Mice are maintained on a 12 hr light/dark cycle at 22° C. with ad lib access to food (TD 5001 with 1.2% Ca and 0.9% P, Teklad, Madison, Wis.) and water. The animals then are divided into groups with 4-5 mice per group. Different doses of test compounds prepared in 10% ethanol and 90% sesame oil, or in an aqueous suspension of sodium lauryl sulfate and CMC (the latter formulation for acidic compounds) are administered to mice orally via gavage for 6 days. 1α-25(OH)2D3 0.5 μg/kg/d was also given to one group of mice as the positive control. Serum ionized calcium is evaluated at 6 hours after the last dosing under isoflurane anesthesia by Ciba-Corning Ca++/PH Analyzer, (Model 634, Chiron Diagnostics Corp., East Walpole, Mass.). Raw data of group differences is assessed by analysis of variance (ANOVA) using Fisher's protected least significant difference (PLSD) where the significance level was P<0.05.

The subject of data set [3] is KERtr cells (Human skin keratinocyte). The experiment in a line: Keratinocyte proliferation assay. The format is cell-based. The conditions noted are these: 72 hr, BrdU incorporation, read-out: Keranocyte Proliferation IC50. How it is done: 6. The keratinocyte proliferation assay is described in the “Assay” section of the Description, infra.
The Keratinocyte Proliferation Assay
This Assay is indicative for the treatment of psoriasis. An acceptable test result is IC50 value of less than or equal to 300 nM. Preferred assay results are IC50 values of less than 100 nM.
KERtr cells (Human skin keratinocyte are transformed with a retrovirus vector, obtained from ATCC, then are plated in 96-well flat-bottomed plates (3000 cells/well) in 100 μl keratinocyte serum free medium supplemented with bovine pituitary extract in the absence of EGF (Life Technologies, Rockville, Md.) and are incubated at 37° C. for two days. The cells are treated with various concentrations of VDR ligands (ten-fold serial dilution from 10,000 nM to 0.1 nM in triplicate), dissolved in 100 μl keratinocyte serum free medium supplemented with bovine pituitary extract in the absence of EGF and are incubated at 37° C. for 72 hr. BrdU (5-bromo-2′-deoxyuridine) incorporation is analyzed as a measure of DNA replication (Cell proliferation ELISA kit, Roche Diagnostics, Indianapolis, Ind.) and absorbance is measured at […]. Potency values (IC50) values were determined as the concentration (nM) of compound that elicited a half-maximal response.
For orientation: Incorporation of labelled thymidine or its analogues reports DNA synthesis.

Setting [4] is: no effect level: highest dose that did not cause hypercalcemia, oral gavage for 6 days, female DBF mice, serum ionized calcium.
[5] abbreviates: female, DBF, mouse, in vivo, po, 6 days.

As for `CCC(CC)(c1ccc(OCC(O)C(C)(C)C)c(C)c1)c1ccc2cc(C(=O)O)ccc2c1` (single isomer, unassigned) [Ex. 2A, 6-{1-Ethyl-1-[4-(2-hydroxy-3,3-dimethyl-butoxy)-3-methyl-phenyl]-propyl}-naphthalene-2-carboxylic acid], the response in data set [1] was half-maximal at 466 nM (EC50). For the same compound, the “Mouse Hypercal” value in data set [2] (setting [4]) is 300 µg/kg/day.

`CCC(CC)(c1ccc(OCC(=O)C(C)(C)C)c(C)c1)c1ccc2cc(C(=O)O)ccc2c1` [Ex. 1, 6-{1-[4-(3,3-dimethyl-2-oxobutoxy)-3-methylphenyl]-1-ethylpropyl}naphthalene-2-carboxylic acid] came in with a 50% effective concentration (EC50) in data set [1] of 194 nM. In addition, the “Mouse Hypercal” value in data set [2] (setting [5]) is 1000 µg/kg/day. In addition, in data set [3], the IC50 amounted to 653 nM.

In the case of `CCC(CC)(c1ccc(OCC(=O)C(C)(C)C)c(C)c1)c1ccc2cc(C(=O)NCC(=O)O)ccc2c1` [Ex. 3, [(6-{1-[4-(3,3-Dimethyl-2-oxo-butoxy)-3-methylphenyl]-1-ethylpropyl}naphthalene-2-carbonyl)amino]acetic acid], the EC50 in data set [1] was 35 nM. Further, the “Mouse Hypercal” value in data set [2] (setting [4]) is less than 300 µg/kg/day. Further, the IC50 in data set [3] stood at 2 nM.

`CCC(CC)(c1ccc(OCC(=O)C(C)(C)C)c(C)c1)c1ccc2cc(C(=O)N(C)C)ccc2c1` [Ex. 4, 6-{1-[4-(3,3-dimethyl-2-oxobutoxy)-3-methylphenyl]-1-ethylpropyl}naphthalene-2-carboxylic acid dimethylamide] registered an EC50 in data set [1] of 550 nM. In data set [2] (setting [5]), the “Mouse Hypercal” value is 1000 µg/kg/day. Further, the IC50 in data set [3] was greater than 1000 nM.

For `CCC(CC)(c1ccc(OCC(=O)C(C)(C)C)c(C)c1)c1ccc2cc(C(=O)N(C)CC(=O)O)ccc2c1` [Ex. 5, [(6-{1-[4-(3,3-Dimethyl-2-oxobutoxy)-3-methylphenyl]-1-ethylpropyl}naphthalene-2-carbonyl)methylamino]acetic acid], the 50% effective concentration (EC50) in data set [1] turned out to be 162 nM. The “Mouse Hypercal” value in data set [2] (setting [4]) is less than 30 µg/kg/day. In addition, the IC50 in data set [3] was found to be 24 nM.

What is called EC50 is the concentration that produces a half-maximal response.
